# Values of other authors in patent US20060159628A1, “Nanoparticulate benzothiophene formulations” (Elan Pharma International Limited, priority 2004, published 2006).
# What was measured:
# uterine tissue = conditions: ovariectomized (OVX) rats
# MCF-7 cells = conditions: cell culture
structure (smiles),measurement,setting,value
"Cl.O=C(c1ccc(OCCN2CCCCC2)cc1)c1c(-c2ccc(O)cc2)sc2cc(O)ccc12 [Raloxifene hydrochloride, methanone, [6-hydroxy-2-(4-hydroxyphenyl)benzo[b]thien-3-yl]-[4-[2-(1-piperidinyl)ethoxy]phenyl]-, hydrochloride]",uterotrophic response,uterine tissue,only minimal uterotrophic response
same,solubility in water,,very slightly soluble
same,estrogen-dependent proliferation in MCF-7 cells,MCF-7 cells,inhibits estrogen-dependent proliferation
